Experimental data as given in ChEMBL document CHEMBL1201862, “PubChem BioAssay data set” (2004).
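Assay format: 96-well plates, 48-hour exposure. Abbreviation: GI50, concentration required for 50% inhibition of growth.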 The source made the active and inactive calls. Cut-off read from the data, not from the text of the source: active = GI50 up to about 1.1 µM and inactive = higher. Non-standard residues stand in square brackets, D forms with d. Residues, ends and D or L forms follow the SMILES beside them. ξ: configuration not given here. Pen = CC(C)(S)[C@H](N)C(=O)O; ξL = CC(C)CC(N)C(=O)O

Tests used:
Test in all cases: inhibition of tumour cell growth, NCI panel, 48 h
DMS-114 = tested on: DMS-114
SNB-78 = tested on: SNB-78
NCI/ADR-RES = tested on: NCI/ADR-RES
DMS-273 = tested on: DMS-273
XF498 = tested on: XF498
HOP-18 = tested on: HOP-18
BT-549 = tested on: BT-549
RXF 631 = tested on: RXF 631
LXFL 529 = tested on: LXFL 529

| SMILES | GI50 (DMS-114) | GI50 (SNB-78) | GI50 (NCI/ADR-RES) | GI50 (DMS-273) | GI50 (XF498) | GI50 (HOP-18) | GI50 (BT-549) | GI50 (RXF 631) | GI50 (LXFL 529) |
| --- | --- | --- | --- | --- | --- | --- | --- | --- | --- |
| c1ccc2c(c1)SCCc1cn[nH]c1-2 | > 100 µM (inactive) | > 100 µM (inactive) | > 100 µM (inactive) | > 100 µM (inactive) | > 100 µM (inactive) | > 100 µM (inactive) |  |  |  |
| O=C(CC/C=C(/CS(=O)(=O)c1ccccc1)S(=O)(=O)c1ccccc1)c1ccccc1 | 21.7 µM (inactive) |  |  | > 100 µM (inactive) | 95.9 µM (inactive) | > 100 µM (inactive) |  |  |  |
| CC(=O)OCC1OC(Nc2ncc(-c3ccc(C)cc3)s2)C(OC(C)=O)C(OC(C)=O)C1OC(C)=O (stereo not given) | 35.6 µM (inactive) | 40.8 µM (inactive) | 26.3 µM (inactive) | > 58.9 µM (inactive) |  | 35.8 µM (inactive) |  |  |  |
| COc1ccc2c(c1)c1c(n2CCN(C)C)-c2ccccc2CC1 |  |  | 16.8 µM (inactive) |  |  |  | 16.9 µM (inactive) |  |  |
| C[Si](C)(C)/C(I)=C/CO |  | 28.6 µM (inactive) |  | 20.6 µM (inactive) | 13.6 µM (inactive) | 32 µM (inactive) |  | 26.4 µM (inactive) | 34.6 µM (inactive) |
| O=C1C2C3C=C4c5ccccc5N(c5ccccc5)C4(C2C(=O)N1Cc1ccccc1)C1C(=O)N(Cc2ccccc2)C(=O)C31 (stereo not given) | > 100 µM (inactive) | > 100 µM (inactive) |  |  | 96.2 µM (inactive) | > 100 µM (inactive) |  | > 100 µM (inactive) | > 100 µM (inactive) |
| N=C(N)SCCC(=O)CCSC(=N)N |  |  | 91.2 µM (inactive) |  |  |  |  |  |  |
| CCn1c(=N)sc2nc3ccccc3n2c1=O |  |  | > 100 µM (inactive) |  |  |  |  |  |  |
| C=CC1(c2ccccc2Cl)N/C(=C/OCC)CO1 (stereo not given) | > 100 µM (inactive) | > 100 µM (inactive) |  | > 100 µM (inactive) | > 100 µM (inactive) | > 100 µM (inactive) |  | > 100 µM (inactive) | > 100 µM (inactive) |
| O=S1(=O)CC#CC[C@@H](CO)[C@@H](CO)CC#CC1 |  | > 100 µM (inactive) |  |  | > 100 µM (inactive) |  |  |  | 71.3 µM (inactive) |
| C=C(CS(=O)(=O)c1ccccc1)[P+](c1ccccc1)(c1ccccc1)c1ccccc1 | 21.6 µM (inactive) | 38 µM (inactive) |  | 16.4 µM (inactive) | 15 µM (inactive) |  |  |  |  |
| CC1(C)CN=C(Nc2ccc(F)cc2)S1 |  |  | > 100 µM (inactive) |  |  |  | > 100 µM (inactive) |  |  |
| CCN(CC)CCCNc1nc(=O)[nH]c(C)c1C(=O)Nc1ccc2c(c1)c1ccccc1n2CC |  |  | > 100 µM (inactive) |  |  |  |  |  |  |
| CN(C)c1nc(N(C)C)nc(N(C)C23CC4CC(CC(C4)C2)C3)n1 |  |  | > 100 µM (inactive) |  |  |  | 27.7 µM (inactive) |  |  |
| Cc1cc(=O)n2nc(CCl)sc2n1 |  |  | 20.7 µM (inactive) |  |  |  | 3.58 µM (inactive) |  |  |
| O=C(NCCOC(=O)OCCNC(=O)NC1CCCCC1)NC1CCCCC1 |  |  | > 100 µM (inactive) |  |  |  |  |  |  |
| CN(C1=NCCO1)c1cccc2ccccc12 |  |  | > 10 µM (inactive) |  |  |  |  |  |  |
| Cc1cc(O)c2c(c1O)C(=O)C13C(=C(O)C4C(O)C1C1C(O)C3C(O)=C3C(=O)c5c(O)cc(C)c(O)c5C(=O)C341)C2=O (stereo not given) | 0.0146 µM (active) | 0.0803 µM (active) | 0.15 µM (active) | 0.0962 µM (active) | 0.134 µM (active) | 0.0615 µM (active) |  |  |  |
| O=C(CC(=O)C(F)(F)F)c1csc2ccccc12 | 31 µM (inactive) | 37.4 µM (inactive) |  | 25 µM (inactive) |  |  |  |  | 21.7 µM (inactive) |
| O=C(O)C(F)(F)C(F)(F)C(F)(F)C(F)(F)C(F)(F)C(F)(F)C(F)(F)C(F)(F)F |  |  | 44.9 µM (inactive) |  |  |  | 49.1 µM (inactive) |  |  |
| COC(=O)C(/C(=N/NC(N)=S)C(=O)Nc1ccccc1[N+](=O)[O-])c1cnc2ccccc2n1 (stereo not given) | > 100 µM (inactive) | > 100 µM (inactive) |  | > 100 µM (inactive) | > 100 µM (inactive) | > 100 µM (inactive) |  | > 100 µM (inactive) | > 100 µM (inactive) |
| Cc1cc(=O)nc(S(=O)(=O)NC(=S)Nc2ccc(Cl)cc2)[nH]1 |  |  | > 100 µM (inactive) |  |  |  | > 100 µM (inactive) |  |  |
| CC12CCC(=O)[C@@]1(C)CCCC2O (stereo not given in full) |  |  | > 100 µM (inactive) |  |  |  | > 100 µM (inactive) |  |  |
| C[S+](C)CC1OC(n2cnc3c(N)ncnc32)C(O)C1O (stereo not given) | > 225 µM (inactive) | > 225 µM (inactive) | > 225 µM (inactive) | > 225 µM (inactive) | > 225 µM (inactive) |  |  |  |  |
| O=C(O)c1ccc(C(=O)O)c2c(C(=O)O)ccc(C(=O)O)c12 |  |  | > 100 µM (inactive) |  |  |  |  |  |  |
| CC=C/C=C/[C@@H]1O[C@](O)([C@H](CC)C(=O)NC/C=C/C=C(\C)[C@@H](OC)[C@@H](C)[C@@H]2O[C@H](/C=C/C=C/C=C(\C)C(=O)c3c(O)cc[nH]c3=O)[C@H](O)[C@@H]2O)[C@H](O)[C@H](O)C1(C)C |  |  | > 100 µM (inactive) |  |  |  |  |  |  |
| CSCC[C@H](NC(=O)C(CC(C)C)NC(=O)[C@H](Cc1c[nH]cn1)NC(=O)CNC(=O)[C@@H](NC(=O)[C@@H](C)NC(=O)[C@H](Cc1c[nH]c2ccccc12)NC(=O)[C@H](CCC(N)=O)NC(=O)[C@@H](N)CC(N)=O)C(C)(C)SC)C(N)=O (stereo not given in full) (H-NQW[dA][Pen](Me)GH[ξL]M-NH2) | > 100 µM (inactive) | > 100 µM (inactive) | > 100 µM (inactive) | > 100 µM (inactive) | > 100 µM (inactive) | > 100 µM (inactive) |  |  |  |
